What was measured:
Assay in all cases: TAG hydrolase assay, humanized mouse ATGL variants
Format in all cases: biochemical
[1] = target: T1, mouse ATGL I69F/T93I/C97F/T146G quadruple mutant (Mus musculus, UniProt Q8BJ56, C97F/I69F/T146G/T93I); details: I69F/T93I/C97F/T146G quadruple mutant of mouse ATGL
T1 construct: host or cells: Expi293 cells, cell lysate
Description: (§1) According to our 3D model, aa T93 and C97 are located in close spatial proximity to I69. […] According to our 3D models, the overall topologies of the minimal active domains of mouse and human ATGL are identical, with S47 and D166 as active site residues in close spatial proximity (depicted as green sticks, Figure 6d,f). Residues S10–L178 (depicted in blue for mouse and pink for human) build a relatively compact half of the protein, while residues K179–L254 (depicted in gray) are less compact. The minimal active domain of both mouse and human ATGL is predicted to have a large, two-pronged fork cavity. The “left,” shallow prong is formed mainly by residues S10–L17 and S170–L254. The “right,” deeper prong is formed by five different helices (depicted in light blue and pink for mouse and human ATGL, respectively). The first helix is assembled by the N-terminal residues G16-E31. […] form three other helices and residues L137–F147 assemble a short helix with an adjacent unstructured stretch. In the orientation shown in Figure 6d,f, the active site is located in the middle part of the cavity connecting both prongs to the exterior. I69, C97, T146, and their human counterparts F69, F97, and G146, are all located in the right prong of the cavity. T(G)146 is located near the active site, while I(F)69 and C(F)97 are located on the opposite side of the cavity in close spatial proximity (Figure 6e,g). Our 3D homology models indicate that these residues change the widths and depths of the right prong, which can explain their crucial contribution to inhibitor selectivity and efficacy.
(§2) Figure 6 Identification of the molecular scaffold determining species selectivity. (a) Schematic view of mouse ATGL variants, which are sensitive to NG-497 inhibition. Humanized aa are indicated in red and nonidentical aa are indicated in dark blue. (b) Dose-dependent inhibition of the I69F/T146G double mutant, the I69F/T93I/C97F/T146G quadruple mutant, and human ATGL. (c) Dose-dependent inhibition of triple mutants I69F/T93I/T146G and I69F/C97F/T146G, and human ATGL. IC50 values are shown in the insets. […]

[2] = target: T2, mouse ATGL triple mutant I69F/C97F/T146G (Mus musculus, UniProt Q8BJ56, C97F/I69F/T146G); details: I69F/C97F/T146G triple mutant of mouse ATGL
T2 construct: host or cells: Expi293 cells, cell lysate
Description: as §1, §2

[3] = target: T3, mouse ATGL triple mutant I69F/T93I/T146G (Mus musculus, UniProt Q8BJ56, I69F/T146G/T93I); details: I69F/T93I/T146G triple mutant of mouse ATGL
T3 construct: host or cells: Expi293 cells, cell lysate
Description: as §1, §2

T1 sequence (Q8BJ56 whole entry I69F/T93I/C97F/T146G): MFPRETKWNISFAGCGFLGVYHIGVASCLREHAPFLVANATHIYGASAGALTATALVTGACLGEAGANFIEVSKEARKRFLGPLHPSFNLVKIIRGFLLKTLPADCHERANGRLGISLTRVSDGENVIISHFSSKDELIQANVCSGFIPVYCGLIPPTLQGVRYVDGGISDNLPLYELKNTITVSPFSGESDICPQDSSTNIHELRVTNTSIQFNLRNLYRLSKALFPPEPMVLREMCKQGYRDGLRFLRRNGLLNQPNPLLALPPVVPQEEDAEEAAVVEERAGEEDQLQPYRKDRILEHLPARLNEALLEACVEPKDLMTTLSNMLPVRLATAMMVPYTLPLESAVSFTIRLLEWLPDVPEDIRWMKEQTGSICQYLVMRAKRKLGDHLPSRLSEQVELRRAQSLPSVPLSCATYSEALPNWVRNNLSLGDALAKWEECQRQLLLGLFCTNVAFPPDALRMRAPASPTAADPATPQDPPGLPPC
T3 sequence (Q8BJ56 whole entry I69F/T93I/T146G): as the sequence (Q8BJ56 whole entry I69F/T93I/C97F/T146G) above, with F97C counted along it
T2 sequence (Q8BJ56 whole entry I69F/C97F/T146G): as the sequence (Q8BJ56 whole entry I69F/T93I/C97F/T146G) above, with I93T counted along it

CCOc1ccc(-c2cc(OC)cc(C(=O)OC(C)C)n2)cc1 [NG-497]
IC50 [1]: 1.6 ± 0.1 µM | IC50 [2]: 1 µM | IC50 [3]: 9.3 µM
